# Active and inactive are the calls of the source. No cut-off for these calls is given here. Peptide text beside a SMILES is read from it.
# How the values were obtained:
# [1] = Toxicity in Caenorhabditis elegans assessed as survival rate at 128 microg/ml measured after 72 hrs by light microscopic analysis; conditions: at 128 µg/mL
# Escherichia coli [2] = assay: Synergistic antibacterial activity against wild type Escherichia coli BW25113 assessed as erythromycin MIC at 8 microg/ml incubated for 18 hrs by broth dilution assay; type: functional; conditions: dose 8 µg/ml
# Escherichia coli [3] = assay: Synergistic antibacterial activity against wild type Escherichia coli BW25113 assessed as erythromycin MIC at 16 microg/ml incubated for 18 hrs by broth dilution assay; type: functional; conditions: dose 16 µg/ml
# Escherichia coli [4] = assay: Synergistic antibacterial activity against wild type Escherichia coli BW25113 assessed as erythromycin MIC at 32 microg/ml incubated for 18 hrs by broth dilution assay; type: functional; conditions: dose 32 µg/ml
# Escherichia coli [5] = assay: Synergistic antibacterial activity against wild type Escherichia coli BW25113 assessed as erythromycin MIC at 64 microg/ml incubated for 18 hrs by broth dilution assay; type: functional; conditions: dose 64 µg/ml
# Escherichia coli [6] = assay: Synergistic antibacterial activity against wild type Escherichia coli BW25113 assessed as erythromycin MIC at 128 microg/ml incubated for 18 hrs by broth dilution assay; type: functional; conditions: dose 128 µg/ml
# Escherichia coli [7] = assay: Synergistic antibacterial activity against wild type Escherichia coli BW25113 assessed as levofloxacin MIC at 8 microg/ml incubated for 18 hrs by broth dilution assay; type: functional; conditions: dose 8 µg/ml
# Escherichia coli [8] = assay: Synergistic antibacterial activity against wild type Escherichia coli BW25113 assessed as levofloxacin MIC at 16 microg/ml incubated for 18 hrs by broth dilution assay; type: functional; conditions: dose 16 µg/ml
# Escherichia coli [9] = assay: Synergistic antibacterial activity against wild type Escherichia coli BW25113 assessed as levofloxacin MIC at 32 microg/ml incubated for 18 hrs by broth dilution assay; type: functional; conditions: dose 32 µg/ml
# Escherichia coli [10] = assay: Synergistic antibacterial activity against wild type Escherichia coli BW25113 assessed as levofloxacin MIC at 64 microg/ml incubated for 18 hrs by broth dilution assay; type: functional; conditions: dose 64 µg/ml
# Escherichia coli [11] = assay: Synergistic antibacterial activity against wild type Escherichia coli BW25113 assessed as levofloxacin MIC at 128 microg/ml incubated for 18 hrs by broth dilution assay; type: functional; conditions: dose 128 µg/ml
# Escherichia coli [12] = assay: Synergistic antibacterial activity against wild type Escherichia coli BW25113 assessed as minocycline MIC at 16 microg/ml incubated for 18 hrs by broth dilution assay; type: functional; conditions: dose 16 µg/ml
# Escherichia coli [13] = assay: Synergistic antibacterial activity against wild type Escherichia coli BW25113 assessed as minocycline MIC at 32 microg/ml incubated for 18 hrs by broth dilution assay; type: functional; conditions: dose 32 µg/ml
# Escherichia coli [14] = assay: Synergistic antibacterial activity against wild type Escherichia coli BW25113 assessed as minocycline MIC at 64 microg/ml incubated for 18 hrs by broth dilution assay; type: functional; conditions: dose 64 µg/ml
# Escherichia coli [15] = assay: Synergistic antibacterial activity against wild type Escherichia coli BW25113 assessed as minocycline MIC at 128 microg/ml incubated for 18 hrs by broth dilution assay; type: functional; conditions: dose 128 µg/ml
# Escherichia coli [16] = assay: Synergistic antibacterial activity against wild type Escherichia coli BW25113 assessed as erythromycin MIC at 8 microg/ml incubated for 18 hrs in presence of colistin by broth dilution assay; type: functional; conditions: dose 8 µg/ml
# Escherichia coli [17] = assay: Synergistic antibacterial activity against wild type Escherichia coli BW25113 assessed as erythromycin MIC at 16 microg/ml incubated for 18 hrs in presence of colistin by broth dilution assay; type: functional; conditions: dose 16 µg/ml
# Escherichia coli [18] = assay: Synergistic antibacterial activity against wild type Escherichia coli BW25113 assessed as erythromycin MIC at 32 microg/ml incubated for 18 hrs in presence of colistin by broth dilution assay; type: functional; conditions: dose 32 µg/ml
# Escherichia coli [19] = assay: Synergistic antibacterial activity against wild type Escherichia coli BW25113 assessed as erythromycin MIC at 64 microg/ml incubated for 18 hrs in presence of colistin by broth dilution assay; type: functional; conditions: dose 64 µg/ml
# Escherichia coli [20] = assay: Synergistic antibacterial activity against wild type Escherichia coli BW25113 assessed as levofloxacin MIC at 8 microg/ml incubated for 18 hrs in presence of colistin by broth dilution assay; type: functional; conditions: dose 8 µg/ml
# Escherichia coli [21] = assay: Synergistic antibacterial activity against wild type Escherichia coli BW25113 assessed as levofloxacin MIC at 16 microg/ml incubated for 18 hrs in presence of colistin by broth dilution assay; type: functional; conditions: dose 16 µg/ml
# Escherichia coli [22] = assay: Synergistic antibacterial activity against wild type Escherichia coli BW25113 assessed as levofloxacin MIC at 32 microg/ml incubated for 18 hrs in presence of colistin by broth dilution assay; type: functional; conditions: dose 32 µg/ml
# Escherichia coli [23] = assay: Synergistic antibacterial activity against wild type Escherichia coli BW25113 assessed as levofloxacin MIC at 64 microg/ml incubated for 18 hrs in presence of colistin by broth dilution assay; type: functional; conditions: dose 64 µg/ml
# Escherichia coli [24] = assay: Synergistic antibacterial activity against wild type Escherichia coli BW25113 assessed as minocycline MIC at 8 microg/ml incubated for 18 hrs in presence of colistin by broth dilution assay; type: functional; conditions: dose 8 µg/ml
# Escherichia coli [25] = assay: Synergistic antibacterial activity against wild type Escherichia coli BW25113 assessed as minocycline MIC at 16 microg/ml incubated for 18 hrs in presence of colistin by broth dilution assay; type: functional; conditions: dose 16 µg/ml
# Escherichia coli [26] = assay: Synergistic antibacterial activity against wild type Escherichia coli BW25113 assessed as minocycline MIC at 32 microg/ml incubated for 18 hrs in presence of colistin by broth dilution assay; type: functional; conditions: dose 32 µg/ml
# Escherichia coli [27] = assay: Synergistic antibacterial activity against wild type Escherichia coli BW25113 assessed as minocycline MIC at 64 microg/ml incubated for 18 hrs in presence of colistin by broth dilution assay; type: functional; conditions: dose 64 µg/ml
# Escherichia coli [28] = assay: Synergistic antibacterial activity against wild type Escherichia coli BW25113 assessed as minocycline MIC at 4 microg/ml incubated for 18 hrs in presence of colistin by broth dilution assay; type: functional; conditions: dose 4 µg/ml
# Escherichia coli [29] = assay: Synergistic antibacterial activity against wild type Escherichia coli BW25113 assessed as fold decrease in levofloxacin MIC at 8 microg/ml incubated for 18 hrs by checkboard based microplate reader analysis; type: functional; conditions: dose 8 µg/ml
# [30] = biological target: T1, Multidrug efflux pump subunit AcrB (Escherichia coli (strain K12)) (UniProt P31224); assay: Inhibition of Escherichia coli BW25113 AcrB assessed as inhibition of nile red efflux at 50 uM incubated for 15 mins
# T1 sequence (whole entry): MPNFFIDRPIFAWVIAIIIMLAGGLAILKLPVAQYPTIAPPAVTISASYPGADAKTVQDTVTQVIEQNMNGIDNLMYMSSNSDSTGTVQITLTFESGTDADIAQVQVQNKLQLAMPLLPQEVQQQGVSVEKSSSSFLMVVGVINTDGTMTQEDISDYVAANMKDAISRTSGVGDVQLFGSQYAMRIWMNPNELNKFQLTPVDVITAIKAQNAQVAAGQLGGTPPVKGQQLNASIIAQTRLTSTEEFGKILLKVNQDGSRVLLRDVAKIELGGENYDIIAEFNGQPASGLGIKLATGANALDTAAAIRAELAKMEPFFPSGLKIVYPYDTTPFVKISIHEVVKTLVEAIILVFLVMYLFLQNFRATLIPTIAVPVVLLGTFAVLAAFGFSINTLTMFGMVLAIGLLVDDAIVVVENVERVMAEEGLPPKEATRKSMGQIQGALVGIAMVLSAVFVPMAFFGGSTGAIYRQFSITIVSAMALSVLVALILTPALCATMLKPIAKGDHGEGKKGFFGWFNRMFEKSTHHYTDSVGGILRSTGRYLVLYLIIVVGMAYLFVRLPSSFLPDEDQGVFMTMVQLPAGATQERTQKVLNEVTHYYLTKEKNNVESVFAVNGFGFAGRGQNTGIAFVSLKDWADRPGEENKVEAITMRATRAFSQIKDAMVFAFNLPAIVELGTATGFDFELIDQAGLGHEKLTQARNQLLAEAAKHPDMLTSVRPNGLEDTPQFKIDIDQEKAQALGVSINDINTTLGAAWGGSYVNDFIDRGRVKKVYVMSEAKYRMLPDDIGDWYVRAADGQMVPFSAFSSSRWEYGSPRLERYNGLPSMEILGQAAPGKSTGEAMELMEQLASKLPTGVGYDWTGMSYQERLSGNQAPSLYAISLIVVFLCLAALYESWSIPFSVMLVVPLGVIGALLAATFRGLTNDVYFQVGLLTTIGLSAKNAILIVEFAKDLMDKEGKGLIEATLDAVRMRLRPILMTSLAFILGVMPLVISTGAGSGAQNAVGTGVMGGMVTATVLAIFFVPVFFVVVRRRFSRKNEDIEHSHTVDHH
# Cell membrane = assay: Induction of inner membrane permeabilization in Escherichia coli BW25113 assessed as increase in fluorescence intensity at 64 microg/ml incubated for 10 mins by DiOC2 dye based fluorimeter analysis; type: subcellular; conditions: dose 64.0 µg/ml
# [31] = Hemolytic activity in mouse RBC assessed as hemolysis at 4 to 256 microg/ml incubated for 1 hr by microplate reader analysis; type: toxicity, cell-based, Erythrocyte; conditions: mouse red blood cells (erythrocytes), at 4 to 256 µg/mL, dose 4-256 µg/ml, read-out: Activity
# Escherichia coli [32] = assay: Synergistic antibacterial activity against wild type Escherichia coli BW25113 assessed as minocycline MIC at 8 microg/ml incubated for 18 hrs by broth dilution assay; type: functional; conditions: dose 8 µg/ml
# Escherichia coli [33] = assay: Synergistic antibacterial activity against wild type Escherichia coli BW25113 assessed as erythromycin MIC at 128 microg/ml incubated for 18 hrs in presence of colistin by broth dilution assay; type: functional; conditions: dose 128 µg/ml
# Escherichia coli [34] = assay: Synergistic antibacterial activity against wild type Escherichia coli BW25113 assessed as levofloxacin MIC at 128 microg/ml incubated for 18 hrs in presence of colistin by broth dilution assay; type: functional; conditions: dose 128 µg/ml
# Escherichia coli [35] = assay: Synergistic antibacterial activity against wild type Escherichia coli BW25113 assessed as minocycline MIC at 128 microg/ml incubated for 18 hrs in presence of colistin by broth dilution assay; type: functional; conditions: dose 128 µg/ml
# Escherichia coli [36] = assay: Synergistic antibacterial activity against wild type Escherichia coli BW25113 assessed as fold decrease in erythromycin MIC at 128 microg/ml incubated for 18 hrs by checkboard based microplate reader analysis; type: functional; conditions: dose 128 µg/ml
SMILES,"survival at 72 h, 128 microg/ml [1]",MIC (Escherichia coli [2]),MIC (Escherichia coli [3]),MIC (Escherichia coli [4]),MIC (Escherichia coli [5]),MIC (Escherichia coli [6]),MIC (Escherichia coli [7]),MIC (Escherichia coli [8]),MIC (Escherichia coli [9]),MIC (Escherichia coli [10]),MIC (Escherichia coli [11]),MIC (Escherichia coli [12]),MIC (Escherichia coli [13]),MIC (Escherichia coli [14]),MIC (Escherichia coli [15]),MIC (Escherichia coli [16]),MIC (Escherichia coli [17]),MIC (Escherichia coli [18]),MIC (Escherichia coli [19]),MIC (Escherichia coli [20]),also measured
CC1(C)S[C@@H]2[C@H](NC(=O)[C@H](N)c3ccccc3)C(=O)N2[C@H]1C(=O)O [AMPICILLIN],99%,–,–,–,–,–,–,–,–,–,–,–,–,–,–,–,–,–,–,–,–
CC1(C)CCc2c(C(=O)N3CCOCC3)cc3c(OCCCSc4ccc(N)cc4)cccc3c2O1,90%,64 µg/mL,64 µg/mL,64 µg/mL,64 µg/mL,64 µg/mL,0.008 µg/mL,0.008 µg/mL,0.008 µg/mL,0.008 µg/mL,0.008 µg/mL,1 µg/mL,1 µg/mL,1 µg/mL,1 µg/mL,8 µg/mL,8 µg/mL,8 µg/mL,8 µg/mL,0.032 µg/mL,MIC (Escherichia coli [21]): 0.016 µg/mL; MIC (Escherichia coli [22]): 0.016 µg/mL; MIC (Escherichia coli [23]): 0.008 µg/mL; MIC (Escherichia coli [24]): 1 µg/mL; MIC (Escherichia coli [25]): 1 µg/mL; MIC (Escherichia coli [26]): 1 µg/mL; MIC (Escherichia coli [27]): 0.5 µg/mL; MIC (Escherichia coli [28]): 1 µg/mL; fold change (FC) (Escherichia coli [29]): 4; inhibition [30]: Active; Activity (Cell membrane): inactive; hemolysis at 1 h [31]: < 5%
N=C(N)NCCC[C@H](NC(=O)[C@@H](N)Cc1ccccc1)C(=O)Nc1ccc2ccccc2c1 [PABETAN] (HELM PEPTIDE1{F.R.[c1ccc2cc(N[*:1])ccc2c1]}$$$$V2.0),–,16 µg/mL,8 µg/mL,4 µg/mL,4 µg/mL,2 µg/mL,0.016 µg/mL,0.008 µg/mL,0.008 µg/mL,0.008 µg/mL,0.001 µg/mL,0.5 µg/mL,0.5 µg/mL,0.5 µg/mL,0.25 µg/mL,–,–,–,–,–,MIC (Escherichia coli [32]): 0.5 µg/mL
CC1(C)CCc2c(C(=O)N3CCOCC3)cc3c(OCCOc4ccc([N+](=O)[O-])cc4)cccc3c2O1,90%,64 µg/mL,64 µg/mL,64 µg/mL,32 µg/mL,16 µg/mL,0.032 µg/mL,0.032 µg/mL,0.032 µg/mL,0.032 µg/mL,0.032 µg/mL,2 µg/mL,2 µg/mL,2 µg/mL,2 µg/mL,8 µg/mL,8 µg/mL,8 µg/mL,8 µg/mL,0.032 µg/mL,MIC (Escherichia coli [32]): 2 µg/mL; MIC (Escherichia coli [33]): 4 µg/mL; MIC (Escherichia coli [21]): 0.032 µg/mL; MIC (Escherichia coli [22]): 0.032 µg/mL; MIC (Escherichia coli [23]): 0.032 µg/mL; MIC (Escherichia coli [34]): 0.032 µg/mL; MIC (Escherichia coli [24]): 1 µg/mL; MIC (Escherichia coli [25]): 1 µg/mL; MIC (Escherichia coli [26]): 1 µg/mL; MIC (Escherichia coli [27]): 0.5 µg/mL; MIC (Escherichia coli [35]): 0.5 µg/mL; fold change (FC) (Escherichia coli [36]): 4; Activity (Cell membrane): inactive; hemolysis at 1 h [31]: < 5%

# From ChEMBL document CHEMBL5346892, “Design and synthesis of benzochromene derivatives as AcrB inhibitors for the reversal of bacterial multidrug resistance” (Eur J Med Chem, 2023)
